The text below walks through data of patent publication US6221865A, “Inhibitors of protein isoprenyl transferases” (priority 1998, dated 2001).

The test addresses T1, protein farnesyltransferase (Rattus norvegicus, UniProt Q02293+Q04631).
T1 construct: The enzyme is purified according to Reiss, Y., et al., Cell, 62: 81-88 (1990), utilizing steps one through three; from tissue; host or cells: rat brain
Briefly: Inhibition of farnesyltransferase (scintillation proximity assay, rat brain enzyme, biotin-K Ras B fragment substrate). Type of test: biochemical. Particulars: for % inhibition of farnesyltransferase at 1 × 10^-6 M: 1 × 10^-6 M (Table 2); for % inhibition of farnesyltransferase at 1 × 10^-7 M: 1 × 10^-7 M (Table 3); for % inhibition of farnesyltransferase at 1 × 10^-8 M: 1 × 10^-8 M (Table 4); for % inhibition of farnesyltransferase at 1 × 10^-5 M: 1 × 10^-5 M (Table 1). The method in brief:
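Enzyme from rat brain, partly purified (steps one to three), assayed by SPA kit using 0.1 mM final biotin-K Ras B peptide as prenyl acceptor rather than biotin-lamin. Activity given as percent inhibition.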
Background: In a scintillation proximity assay essentially only radioactivity close to the scintillant gives light.

T1 sequence (Q02293 whole entry, one chain of several): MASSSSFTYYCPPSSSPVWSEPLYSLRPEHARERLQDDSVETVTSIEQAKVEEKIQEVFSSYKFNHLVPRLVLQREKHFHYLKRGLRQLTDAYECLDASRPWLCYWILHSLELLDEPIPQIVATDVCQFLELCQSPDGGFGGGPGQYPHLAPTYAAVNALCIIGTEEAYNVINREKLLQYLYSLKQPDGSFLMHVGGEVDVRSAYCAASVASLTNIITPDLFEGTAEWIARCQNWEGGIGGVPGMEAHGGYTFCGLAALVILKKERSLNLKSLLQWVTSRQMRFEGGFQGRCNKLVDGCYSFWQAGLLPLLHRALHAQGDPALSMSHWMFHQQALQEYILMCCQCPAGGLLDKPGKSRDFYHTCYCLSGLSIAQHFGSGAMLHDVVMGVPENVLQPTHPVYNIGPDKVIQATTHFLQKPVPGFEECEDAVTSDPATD

Take `CSCC[C@H](NC(=O)c1ccc(COCCCc2ccccc2)cc1-c1ccccc1C)C(=O)[O-].[Li+]` [Example 595]: the “% inhibition of farnesyltransferase at 1 × 10^-6 M” value (shortened to “% inhibition … at 1 × 10^-6 M”) is reported as 97%.
Take `CSCC[C@@H](C(=O)[O-])N(C)C(=O)c1ccc(COCCCC2CCCCC2)cc1-c1ccccc1C.[Li+]` [Example 597]: the “% inhibition of farnesyltransferase at 1 × 10^-7 M” value (shortened to “% inhibition … at 1 × 10^-7 M”) is on record as 75%.
For the compound `CSCC[C@H](NC(=O)c1ccc(COCCCC23CC4CC(CC(C4)C2)C3)cc1-c1ccccc1C)C(=O)[O-].[Li+]` [Example 599], the “% inhibition of farnesyltransferase at 1 × 10^-8 M” value (“% inhibition … at 1 × 10^-8 M” for short) amounted to 86%.
On to `CSCC[C@H](NC(=O)c1ccc(COCCCCC2CCCCC2)cc1-c1ccccc1C)C(=O)O` [Example 600], for which the “% inhibition … at 1 × 10^-7 M” value was 93%.
Regarding `CSCC[C@H](NC(=O)c1ccc(COCCCCc2ccccc2)cc1-c1ccccc1C)C(=O)O` [Example 601], the “% inhibition … at 1 × 10^-7 M” value is on record as 92%.
Same read-out and setting: in the case of `CSCC[C@H](NC(=O)c1ccc(CN[C@@H](CO)C2CCCCC2)cc1-c1ccccc1C)C(=O)O` [Example 604] it was 86%.
As for `CSCC[C@H](NC(=O)c1ccc(CN(CCC2CCCCC2)Cc2ccccc2)cc1-c1ccccc1C)C(=O)[O-].[Li+]` [Example 605], the “% inhibition … at 1 × 10^-8 M” value turned out to be 68%.
Take `CCSC[C@H](CC1CCCCC1)OCc1ccc(C(=O)N[C@@H](CCSC)C(=O)O)c(-c2ccccc2C)c1` [Example 606]: the “% inhibition … at 1 × 10^-8 M” value is recorded as 93%.
Consider `CSCC[C@H](NC(=O)c1ccc(CNCCC2CCCCC2)cc1-c1ccccc1C)C(=O)O.O=C(O)C(F)(F)F` [Example 607], for which the “% inhibition … at 1 × 10^-6 M” value stood at 96%.
In the case of `CSCC[C@H](NC(=O)c1ccc(CN(C)CCC2CCCCC2)cc1-c1ccccc1C)C(=O)[O-].[Li+]` [Example 608], the “% inhibition … at 1 × 10^-8 M” value was 91%.
Turning to `CSCC[C@H](NC(=O)c1ccc(CN(CCC2CCCCC2)C(C)=O)cc1-c1ccccc1C)C(=O)[O-].[Li+]` [Example 609], the “% inhibition … at 1 × 10^-7 M” value was 95%.
Consider `CSCC[C@H](NC(=O)c1ccc(CN(CCC2CCCCC2)C(=O)N(C)C)cc1-c1ccccc1C)C(=O)O` [Example 610], for which the “% inhibition … at 1 × 10^-6 M” value was 94%.
On to `CSCC[C@H](NC(=O)c1ccc(CN(CCC2CCCCC2)S(C)(=O)=O)cc1-c1ccccc1C)C(=O)O` [Example 611], for which the “% inhibition … at 1 × 10^-7 M” value came to 95%.
As to `CSCC[C@H](NC(=O)c1ccc(CN(CCC2CCCCC2)S(=O)(=O)c2ccccc2)cc1-c1ccccc1C)C(=O)O` [Example 612], the “% inhibition … at 1 × 10^-8 M” value was determined as 96%.
Consider `CSCC[C@H](NC(=O)c1ccc(CN[C@H](C)CC2CCCCC2)cc1-c1ccccc1C)C(=O)O` [Example 613], for which the “% inhibition … at 1 × 10^-6 M” value was 97%.
Consider `CC[C@H](CC1CCCCC1)NCc1ccc(C(=O)N[C@@H](CCSC)C(=O)O)c(-c2ccccc2C)c1` [Example 614], for which the “% inhibition … at 1 × 10^-8 M” value was 92%.
With `CCCC[C@H](CC1CCCCC1)NCc1ccc(C(=O)N[C@@H](CCSC)C(=O)O)c(-c2ccccc2C)c1` [Example 615], the “% inhibition … at 1 × 10^-7 M” value is given as 94%.
Turning to `CSCC[C@H](NC(=O)c1ccc(CNC(CC2CCCCC2)C2CCCCC2)cc1-c1ccccc1C)C(=O)[O-].[Li+]` (some centres unmarked) [Example 616], the “% inhibition … at 1 × 10^-7 M” value was 95%.
As to `CSCC[C@H](NC(=O)c1ccc(CN[C@H](CO)CC2CCCCC2)cc1-c1ccccc1C)C(=O)O` [Example 617], the “% inhibition … at 1 × 10^-6 M” value is 99%.
For the compound `CSCC[C@H](NC(=O)c1ccc(CN[C@@H](CO)CC2CCCCC2)cc1-c1ccccc1C)C(=O)O` [Example 618], the “% inhibition … at 1 × 10^-7 M” value was 89%.
Consider `C=C[C@H](CC1CCCCC1)NCc1ccc(C(=O)N[C@@H](CCSC)C(=O)O)c(-c2ccccc2C)c1` [Example 619], for which the “% inhibition … at 1 × 10^-8 M” value amounted to 95%.
For the compound `CCS(=O)(=O)C[C@H](CC1CCCCC1)NCc1ccc(C(=O)N[C@@H](CCSC)C(=O)O)c(-c2ccccc2C)c1` [Example 620], the “% inhibition … at 1 × 10^-6 M” value was 98%.
Consider `CCS(=O)(=O)C[C@H](CC1CCCCC1)NCc1ccc(C(=O)N[C@@H](CCS(C)(=O)=O)C(=O)O)c(-c2ccccc2C)c1` [Example 621], for which the “% inhibition … at 1 × 10^-7 M” value is reported as 98%.
In the case of `CSCC[C@H](NC(=O)c1ccc(CN[C@H](CSC(C)(C)C)CC2CCCCC2)cc1-c1ccccc1C)C(=O)O` [Example 622], the “% inhibition … at 1 × 10^-7 M” value came to 95%.
Regarding `CSCC[C@H](NC(=O)c1ccc(CN[C@H](CSc2ccccc2)CC2CCCCC2)cc1-c1ccccc1C)C(=O)O` [Example 623], the “% inhibition … at 1 × 10^-7 M” value was determined as 96%.
For the compound `CSCC[C@H](NC(=O)c1ccc(CNCCS)cc1-c1ccccc1)C(=O)O` [Example 626], the “% inhibition … at 1 × 10^-6 M” value is on record as 61%.
Consider `CSCC[C@H](NC(=O)c1ccc(CNCCSC(C)(C)C)cc1-c1ccccc1)C(=O)O` [Example 627], for which the “% inhibition … at 1 × 10^-6 M” value came to 85%.
Turning to `CSCC[C@H](NC(=O)c1ccc(CNCC(O)CO)cc1-c1ccccc1)C(=O)O` (some centres unmarked) [Example 632], the “% inhibition … at 1 × 10^-6 M” value is on record as 43%.
Still for that read-out and setting: in the case of `CSCCC(CO)NCc1ccc(C(=O)N[C@@H](CCSC)C(=O)O)c(-c2ccccc2)c1` (some centres unmarked) [Example 633] it was 32%.
Regarding `CSCC[C@H](NC(=O)c1ccc(CNCCN(C(C)C)C(C)C)cc1-c1ccccc1)C(=O)O` [Example 636], the “% inhibition … at 1 × 10^-6 M” value stood at 72%.
For `CSCC[C@H](NC(=O)c1ccc(CNCC(C)(C)CN(C)C)cc1-c1ccccc1)C(=O)O` [Example 639], the “% inhibition of farnesyltransferase at 1 × 10^-5 M” value (“% inhibition … at 1 × 10^-5 M” below) is 44%.
For the compound `CSCC[C@H](NC(=O)c1ccc(CNCCN2CCCC2)cc1-c1ccccc1)C(=O)O` [Example 641], the “% inhibition … at 1 × 10^-6 M” value is listed as 34%.
In the case of `CSCC[C@H](NC(=O)c1ccc(CNc2ccccc2F)cc1-c1ccccc1)C(=O)O` [Example 642], the “% inhibition … at 1 × 10^-6 M” value was 48%.
Consider `CSCC[C@H](NC(=O)c1ccc(CNc2ccccc2C(N)=O)cc1-c1ccccc1)C(=O)O` [Example 644], for which the “% inhibition … at 1 × 10^-6 M” value is on record as 54%.
The same measure, in the same setting: the result for `CSCC[C@H](NC(=O)c1ccc(CNc2ccccc2Oc2ccccc2)cc1-c1ccccc1)C(=O)O` [Example 645] reads 37%.
On the same count and under the same terms, in the case of `CCOC(=O)c1ccc(NCc2ccc(C(=O)N[C@@H](CCSC)C(=O)O)c(-c3ccccc3)c2)cc1` [Example 646] it was 58%; in that of `CSCC[C@H](NC(=O)c1ccc(CN(CCC#N)Cc2ccccc2)cc1-c1ccccc1)C(=O)O` [Example 649], 86%.
Still for that read-out and setting: in the case of `COc1ccccc1CNCc1ccc(C(=O)N[C@@H](CCSC)C(=O)O)c(-c2ccccc2)c1` [Example 650] it was 68%.
With `COc1cccc(CNCc2ccc(C(=O)N[C@@H](CCSC)C(=O)O)c(-c3ccccc3)c2)c1` [Example 652], the “% inhibition … at 1 × 10^-6 M” value is recorded as 41%.
The same measure, in the same setting: in the case of `CSCC[C@H](NC(=O)c1ccc(CNCc2ccc(N)cc2)cc1-c1ccccc1)C(=O)O` [Example 653] it was 62%; in that of `COc1ccc(CNCc2ccc(C(=O)N[C@@H](CCSC)C(=O)O)c(-c3ccccc3)c2)c(OC)c1` [Example 655], 35%; in that of `CSCCC(NC(=O)c1ccc(CNC(CO)c2ccccc2)cc1-c1ccccc1)C(=O)O` (centres unmarked) [Example 657], 32%.
As to `CSCCC(NC(=O)c1ccc(CNC(CO)c2ccccc2)cc1-c1ccccc1)C(=O)O` (centres unmarked) [Example 658], the “% inhibition … at 1 × 10^-6 M” value is 73%.
For `COc1cc2c(cc1OC)C(CNCc1ccc(C(=O)N[C@@H](CCSC)C(=O)O)c(-c3ccccc3)c1)=CC(C1CCCCC1)C2` (some centres unmarked) [Example 659], the “% inhibition … at 1 × 10^-5 M” value was 55%.
Regarding `CSCC[C@H](NC(=O)c1ccc(CNCC(O)c2cccc(O)c2)cc1-c1ccccc1)C(=O)O` (some centres unmarked) [Example 661], the “% inhibition … at 1 × 10^-6 M” value worked out at 45%.
With `CSCC[C@H](NC(=O)c1ccc(CNC(CO)Cc2ccc(Cl)cc2)cc1-c1ccccc1)C(=O)O` (some centres unmarked) [Example 662], the “% inhibition … at 1 × 10^-6 M” value came to 68%.
Regarding `CSCC[C@H](NC(=O)c1ccc(CNCCC2CCCCC2)cc1-c1ccccc1)C(=O)O` [Example 663], the “% inhibition … at 1 × 10^-5 M” value was found to be 43%.
The same measure, in the same setting: the result for `C=C[C@@H](CC1CCCCC1)NCc1ccc(C(=O)N[C@@H](CCSC)C(=O)O)c(-c2ccccc2)c1` [Example 664] reads 75%.
`CSCC[C@H](NC(=O)c1ccc(CN[C@@H](/C=C\CC(C)C)CC2CCCCC2)cc1-c1ccccc1)C(=O)O` [Example 665]: the “% inhibition … at 1 × 10^-6 M” value came out at 55%.
Same read-out and setting: in the case of `CSCC[C@H](NC(=O)c1ccc(CN[C@H](/C=C\CC(C)C)CC2CCCCC2)cc1-c1ccccc1)C(=O)O` [Example 666] it was 82%; in that of `CSCC[C@H](NC(=O)c1ccc(CNCCSc2ccccc2)cc1-c1ccccc1)C(=O)O` [Example 667], 83%.
Regarding `CSCC[C@H](NC(=O)c1ccc(CNc2ccccc2CCO)cc1-c1ccccc1)C(=O)O` [Example 671], the “% inhibition … at 1 × 10^-6 M” value is listed as 36%.
For the compound `CSCC[C@H](NC(=O)c1ccc(CNc2ccccc2N(C)C)cc1-c1ccccc1)C(=O)O` [Example 672], the “% inhibition … at 1 × 10^-5 M” value is 48%.
In the case of `CSCC[C@H](NC(=O)c1ccc(CNc2ccccc2N2CCCCC2)cc1-c1ccccc1)C(=O)O` [Example 673], the “% inhibition … at 1 × 10^-6 M” value stood at 59%.
With `CSCC[C@H](NC(=O)c1ccc(CNc2cccc(C)c2)cc1-c1ccccc1)C(=O)O` [Example 674], the “% inhibition … at 1 × 10^-5 M” value was 40%.
On the same count and under the same terms, the result for `CSCC[C@H](NC(=O)c1ccc(CNc2cccc(O)c2)cc1-c1ccccc1)C(=O)O` [Example 676] reads 76%.
